In publication PMC6566410, “Novel Diamide-Based Benzenesulfonamides as Selective Carbonic Anhydrase IX Inhibitors Endowed with Antitumor Activity: Synthesis, Biological Evaluation and In Silico Insights” (International Journal of Molecular Sciences, 2019):

Legend:
[1] = target: hCA XII (Homo sapiens, UniProt O43570); test: stopped-flow CO2 hydrase assay; details: for Selectivity ratio I/XII: KI hCA I / KI hCA XII; for Selectivity ratio II/XII: KI hCA II / KI hCA XII
Excerpt: (§1) An Applied Photophysics stopped-flow instrument was used for assaying the CA catalysed CO2 hydration activity, as reported earlier [17]. The inhibition constants were obtained by non-linear least-squares methods using PRISM 3 and the Cheng-Prusoff equation as reported earlier, and represent the mean from at least three different determinations. The four tested CA isofoms were recombinant ones obtained in-house as reported earlier [26, 27, 28, 29].

[2] = target: hCA IX (Homo sapiens, UniProt Q16790); test: stopped-flow CO2 hydrase assay; details: for Selectivity ratio I/IX: KI hCA I / KI hCA IX; for Selectivity ratio II/IX: KI hCA II / KI hCA IX
Excerpt: as §1

[3] = system: UO-31; test: NCI one-dose SRB assay; format: cell-based; details: Homo sapiens; for activity at 10 µM: UO-31 (Renal Cancer), 1.00E-5 Molar, one dose, read-out: Growth Percent
Method: First, all diamide-based benzenesulfonamides herein reported 5a–h were screened for their antitumor activity at one dose (10^−5 M) assay against a panel of sixty cancer cell lines through the National Cancer Institute (NCI) Developmental Therapeutic Program (www.dtp.nci.nih.gov), according to US-NCI protocol. The cell growth and cell viability were evaluated using the sulforhodamine B (SRB) colorimetric assay.
The obtained data were reported as mean-graph of the percentage growth of the different treated tumour cells (Supplementary Materials). Exploration of results for this assay confirmed that the examined diamide-based benzenesulfonamides 5a–h had non-significant activity towards most NCI cancer cell lines.
This assay was carried out according to the protocol of the Drug Evaluation Branch, NCI, Bethesda. The cell growth and cell viability were evaluated using the sulforhodamine B (SRB) colorimetric assay, as reported earlier.

[4] = system: UO-31 cells; test: Annexin V-FITC/PI apoptosis assay; format: cell-based, human; details: for late apoptotic cells (UR) / early apoptotic cells (LR): UO-31, annexin V-FITC/PI; for late apoptotic cells (UR): control 0.29%; for early apoptotic cells (LR): control 0.85%
Method: To explore whether the anti-proliferative activity of diamide-based sulfonamides 5a and 5h is consistent with the induction of apoptosis within the UO-31 cancer cells, Annexin V-FITC/propidium iodide (AV/PI) dual staining assay was performed by flow cytometry (Figure 4).
Assay of the phosphatidylserine externalization was carried out using Annexin V-FITC/PI apoptosis detection kit (BD Biosciences, San Jose, CA, USA) following the manufacturer’s instructions, as reported previously.

[5] = system: UO-31 cells; test: cell cycle analysis, DNA flow cytometry; format: cell-based, human; details: UO-31, at IC50 concentration, 24 h
Method: The effect of diamide-based benzenesulfonamides 5a and 5h on cell cycle progression was examined in renal UO-31 cancer cells, through a DNA flow cytometric assay (Figure 3).
Then, the treated cells were collected by centrifugation, fixed in ice-cold 70% (v/v) ethanol, washed with PBS, re-suspended with RNase (100 μg/mL), stained with PI (40 μg/mL), and analyzed by flow cytometry using FACS Calibur (Becton Dickinson, BD, USA). The cell cycle distributions were calculated utilizing CellQuest software 5.1 (Becton Dickinson).

[6] = system: renal cancer UO-31 cell line; test: MTT anti-proliferative assay; format: cell-based; details: Homo sapiens, mean ± S.D. of three separate experiments
Method: Staurosporine was adopted in the experiment as a reference anticancer drug.
Renal cancer UO-31 cell line was obtained from American Type Culture Collection (ATCC). UO-31 cells were seeded into 96-well plates at 1.8 x 10^4/well. Cells were grown in DMEM, and supplemented with 10% heat-inactivated fetal bovine serum, 1% L-glutamine (2.5 mM), HEPES buffer (10 mM), 50 μg/mL gentamycin.

[7] = system: BT-549; test: NCI one-dose SRB assay; format: cell-based, human; details: BT-549 (Breast Cancer), 1.00E-5 Molar
In short: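 Single-dose screen at 10^−5 M across the NCI sixty-cell-line panel, run per the US-NCI Developmental Therapeutic Program protocol. Cell growth and viability were read by sulforhodamine B colorimetric assay.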

hCA XII, sequence (O43570 25-354): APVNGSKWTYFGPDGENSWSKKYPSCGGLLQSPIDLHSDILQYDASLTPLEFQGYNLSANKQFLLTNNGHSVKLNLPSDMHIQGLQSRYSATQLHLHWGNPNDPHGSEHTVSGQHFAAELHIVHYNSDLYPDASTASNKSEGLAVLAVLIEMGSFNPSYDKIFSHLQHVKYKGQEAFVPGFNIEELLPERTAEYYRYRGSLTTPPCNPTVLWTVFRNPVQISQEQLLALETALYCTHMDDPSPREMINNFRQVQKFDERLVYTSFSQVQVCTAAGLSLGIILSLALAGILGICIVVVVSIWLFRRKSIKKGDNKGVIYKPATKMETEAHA

Row | Compound | Ki [1] | Selectivity ratio I/XII [1] | Selectivity ratio II/XII [1] | Ki [2] | Selectivity ratio I/IX [2] | Selectivity ratio II/IX [2] | activity at 10 µM [3] | total increase in annexin V-FITC positive apoptotic cells (UR + LR) compared with control ([4]; UO-31) | late apoptotic cells (UR) [4] | early apoptotic cells (LR) [4] | arrest in G2-M phase compared to control [5] | increase in percentage of cells at Sub-G1 compared to control [5] | inhibition at 10 µM ([3]; UO-31, one dose 10^−5 M, read-out: percentage growth inhibition (GI%)) | IC50 [6] | Growth Percent [7]
1 | NS(=O)(=O)c1ccc(NC(=O)C(=Cc2ccc(Br)cc2)NC(=O)c2ccccc2)cc1 [Compound 5c, N-(1-(4-Bromophenyl)-3-oxo-3-((4-sulfamoylphenyl)amino)prop-1-en-2-yl)benzamide] | 0.0554 µM | 43.3 | 4.5 | 0.0335 µM | 71.6 | 7.5 | 77.2% |  |  |  |  |  |  |  | 
2 | COc1ccc(C=C(NC(=O)c2ccccc2)C(=O)Nc2ccc(S(N)(=O)=O)cc2)cc1OC [Compound 5g, N-(1-(3,4-Dimethoxyphenyl)-3-oxo-3-((4-sulfamoylphenyl)amino)prop-1-en-2-yl)benzamide] | 0.0098 µM | 225.3 | 45.7 | 0.123 µM | 17.9 | 3.6 | 77.9% |  |  |  |  |  |  |  | 
3 | Cc1ccc(C=C(NC(=O)c2ccccc2)C(=O)Nc2ccc(S(N)(=O)=O)cc2)o1 [Compound 5h, N-(1-(5-Methylfuran-2-yl)-3-oxo-3-((4-sulfamoylphenyl)amino)prop-1-en-2-yl)benzamide] | 0.0579 µM | 141.2 | 2 | 0.0083 µM | 985 | 13.8 | 65.2% | 26.5 fold | 21.85% | 8.41% | 2.5 fold | 15.5 fold | 35% | 4.89 ± 0.22 µM | 
4 | Cc1ccc(C=C(NC(=O)c2ccccc2)C(=O)Nc2ccc(S(N)(=O)=O)cc2)cc1 [Compound 5d, N-(3-Oxo-3-((4-sulfamoylphenyl)amino)-1-(p-tolyl)prop-1-en-2-yl)benzamide] | 0.0602 µM | 13.2 |  | 0.0621 µM | 12.8 | 1.5 | 87% |  |  |  |  |  |  |  | 105.04%
5 | COc1ccc(C=C(NC(=O)c2ccccc2)C(=O)Nc2ccc(S(N)(=O)=O)cc2)cc1 [Compound 5e, N-(1-(4-Methoxyphenyl)-3-oxo-3-((4-sulfamoylphenyl)amino)prop-1-en-2-yl)benzamide] | 0.0428 µM | 23.5 | 3 | 0.078 µM | 12.9 | 1.5 | 86.4% |  |  |  |  |  |  |  | 
6 | NS(=O)(=O)c1ccc(NC(=O)C(=Cc2ccc(Cl)cc2Cl)NC(=O)c2ccccc2)cc1 [Compound 5b, N-(1-(2,4-Dichlorophenyl)-3-oxo-3-((4-sulfamoylphenyl)amino)prop-1-en-2-yl)benzamide] | 0.0105 µM | 569.2 | 21.3 | 0.0183 µM | 326.6 | 12.2 | 75.8% |  |  |  |  |  |  | 16.7 ± 0.92 µM | 89.13%
7 | NS(=O)(=O)c1ccc(NC(=O)C(=Cc2ccc(Cl)cc2)NC(=O)c2ccccc2)cc1 [Compound 5a, N-(1-(4-Chlorophenyl)-3-oxo-3-((4-sulfamoylphenyl)amino)prop-1-en-2-yl)benzamide] | 0.0161 µM | 245.7 | 4.2 | 0.0088 µM | 449.5 | 7.8 | 78.7% |  | 22.96% | 2.64% | 2.2 fold | 14 fold |  | 6.53 ± 0.38 µM | 
8 | COc1ccc(C=C(NC(=O)c2ccccc2)C(=O)Nc2ccc(S(N)(=O)=O)cc2)c(OC)c1 [Compound 5f, N-(1-(2,4-Dimethoxyphenyl)-3-oxo-3-((4-sulfamoylphenyl)amino)prop-1-en-2-yl)benzamide] | 0.135 µM | 38.2 | 2.2 | 0.0737 µM | 69.9 | 4 | 82.5% |  |  |  |  |  |  |  | 
